Here are results for 34 molecules from patent US20100267784A1, “NOVEL 4,5-DIHYDROISOXAZOLES WITH ESTROGENIC ACTIVITY” (priority 2007, published 2010).

One series deals with T1, ERα (Homo sapiens, UniProt P03372).
T1 sequence (P03372 1-595): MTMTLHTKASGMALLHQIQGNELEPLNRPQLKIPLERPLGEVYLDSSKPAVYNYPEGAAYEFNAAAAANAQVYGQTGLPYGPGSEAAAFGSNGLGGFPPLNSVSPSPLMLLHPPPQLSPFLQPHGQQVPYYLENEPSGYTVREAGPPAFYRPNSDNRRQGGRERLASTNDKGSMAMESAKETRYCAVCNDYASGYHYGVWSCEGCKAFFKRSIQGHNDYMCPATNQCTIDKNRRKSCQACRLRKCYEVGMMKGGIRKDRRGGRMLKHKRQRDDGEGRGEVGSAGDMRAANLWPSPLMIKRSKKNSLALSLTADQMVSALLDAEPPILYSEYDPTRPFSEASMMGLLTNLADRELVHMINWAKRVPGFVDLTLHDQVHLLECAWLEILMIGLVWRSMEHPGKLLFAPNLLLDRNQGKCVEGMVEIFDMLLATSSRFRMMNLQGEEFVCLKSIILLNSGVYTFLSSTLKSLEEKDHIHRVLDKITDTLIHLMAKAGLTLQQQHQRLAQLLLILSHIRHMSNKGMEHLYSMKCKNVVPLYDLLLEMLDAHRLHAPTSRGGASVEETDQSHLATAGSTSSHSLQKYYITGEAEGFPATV
As to the kind of experiment: ERα reporter (luciferase) transactivation assay in transfected HEK293 cells. As to conditions: sample concentration 10 μM, 24 hours, mean of at least three independent transfections. Type of series: cell-based. On the set-up: expressed in transfected cells; host or cells: HEK293. The protocol:
(§1) Determination of the Estrogen Activity of the Compounds: Cell Culture, Transfection and Reporter Assays
(§2) All other reagents were of reagent grade from Sigma or Fluka. One day before transfection, HEK293 cells were seeded in 48-well plates (70×10^3 cells per well) in phenol-free Dulbecco's modified Eagle medium supplemented with 5% delipidated fetal bovine serum (Sigma) and antibiotics. After a medium change, the cells were transfected for 4 hours with 5 ng ERα or ERβ expression vector, 75 ng reporter plasmid pERE2TATA-LUC and 20 ng control plasmid pCMVβ by the calcium phosphate method. After transfection, the cells received fresh medium containing either vehicle (0.1% v/v) or test compound (10 μM). After 24 hours, the cells were washed, lysed and luciferase and β-galactosidase activities were determined from 20 μl of lysates with the Victor^2TM reader (PerkinElmer Wallac, Turku, Finland). […] The data are means ±SEM of at least three independent transfections.

Another series concerns the target ERβ (Homo sapiens, UniProt Q92731). As to the kind of experiment: ERβ reporter (luciferase) transactivation assay in transfected HEK293 cells. Type of series: cell-based. More on the design: expressed in transfected cells; host or cells: HEK293. The conditions noted are these: for ERβ receptor activation relative to 10 nM E2 corresponding 100: sample concentration 10 μM, 24 hours, mean of at least three independent transfections; for activation at 10 µM: HEK293, 24 h, read-out: ERβ receptor activation relative to 10 nM E2 corresponding 100, sample concentration 10 μM, mean of at least three independent transfections. The protocol: as §1, §2

Several values for one entry are separate records, joined by “and”; a condition that tells them apart may be missing. Equal values may be shown once.

ERβ, sequence (Q92731 whole entry): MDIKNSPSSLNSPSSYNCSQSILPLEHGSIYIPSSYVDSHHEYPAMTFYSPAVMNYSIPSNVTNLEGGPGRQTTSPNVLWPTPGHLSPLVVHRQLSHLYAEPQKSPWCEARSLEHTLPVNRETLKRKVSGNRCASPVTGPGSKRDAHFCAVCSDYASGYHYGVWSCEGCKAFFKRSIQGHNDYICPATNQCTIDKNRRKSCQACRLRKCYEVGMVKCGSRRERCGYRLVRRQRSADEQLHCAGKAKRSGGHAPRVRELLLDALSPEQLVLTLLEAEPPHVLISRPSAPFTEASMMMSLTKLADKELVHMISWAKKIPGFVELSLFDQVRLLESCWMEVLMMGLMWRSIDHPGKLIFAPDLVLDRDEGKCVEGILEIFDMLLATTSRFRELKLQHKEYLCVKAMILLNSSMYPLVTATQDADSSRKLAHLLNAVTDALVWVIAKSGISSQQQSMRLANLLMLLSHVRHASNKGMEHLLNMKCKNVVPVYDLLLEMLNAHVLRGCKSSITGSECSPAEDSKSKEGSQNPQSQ

In the case of `c1ccc(CC2CC(c3ccccc3)=NO2)cc1` (single isomer, unassigned) [107b, 5-Benzyl-3-phenyl-4,5-dihydroisoxazole], the “ERα receptor activation relative to 10 nM E2 corresponding 100” value at ERα stood at 47.2%. Besides, the “ERβ receptor activation relative to 10 nM E2 corresponding 100” value on ERβ is 12.8%.
As to `c1ccc(CCC2=NOC(Cc3ccccc3)C2)cc1` (single isomer, unassigned) [109a, 5-Benzyl-3-phenethyl-4,5-dihydroisoxazole], the “ERα receptor activation relative to 10 nM E2 corresponding 100” value at ERα was 68.4%. On ERβ, the activation at 10 µM turned out to be 1.1%.
For the molecule `c1ccc(CCC2=NOC(Cc3ccccc3)C2)cc1` (single isomer, unassigned) [109b, 5-Benzyl-3-phenethyl-4,5-dihydroisoxazole], the “ERα receptor activation relative to 10 nM E2 corresponding 100” value at ERα is given as 38.2%. Also, the “ERβ receptor activation relative to 10 nM E2 corresponding 100” value at ERβ was found to be 1.3%.
As for `c1ccc(CCC2=NOC(c3ccccc3)C2)cc1` (single isomer, unassigned) [110a, 3-Phenethyl-5-phenyl-4,5-dihydroisoxazole], the “ERα receptor activation relative to 10 nM E2 corresponding 100” value on ERα is given as 16.4%. Besides, the activation at 10 µM on ERβ was 9.8%.
As to `c1ccc(CCC2=NOC(c3ccccc3)C2)cc1` (single isomer, unassigned) [110b, 3-Phenethyl-5-phenyl-4,5-dihydroisoxazole], at ERα, the “ERα receptor activation relative to 10 nM E2 corresponding 100” value came out at 11.2%. Also, at ERβ, the “ERβ receptor activation relative to 10 nM E2 corresponding 100” value was found to be 8.1%.
With `c1ccc(CCC2CC(c3ccccc3)=NO2)cc1` (single isomer, unassigned) [111a, 5-Phenethyl-3-phenyl-4,5-dihydroisoxazole], the “ERα receptor activation relative to 10 nM E2 corresponding 100” value on ERα came out at 22.8%. In addition, at ERβ, the “ERβ receptor activation relative to 10 nM E2 corresponding 100” value is 8.5%.
The matching figures for `c1ccc(CCC2CC(c3ccccc3)=NO2)cc1` (single isomer, unassigned) [111b, 5-Phenethyl-3-phenyl-4,5-dihydroisoxazole]: 1.1% and −6.0%.
With `c1ccc(CCCC2=NOC(Cc3ccccc3)C2)cc1` (single isomer, unassigned) [114a, 5-Benzyl-3-(3-phenyl-propyl)-4,5-dihydro-isoxazole], the “ERα receptor activation relative to 10 nM E2 corresponding 100” value on ERα was determined as 31.3%. For the same molecule, the “ERβ receptor activation relative to 10 nM E2 corresponding 100” value at ERβ stood at 13.6%.
On the same counts, the results for `c1ccc(CCCC2=NOC(Cc3ccccc3)C2)cc1` (single isomer, unassigned) [114b, 5-Benzyl-3-(3-phenyl-propyl)-4,5-dihydro-isoxazole] are 28.1% and 5.1%.
The matching figures for `c1ccc(CCC2=NOC(CCc3ccccc3)C2)cc1` (single isomer, unassigned) [116a, 3,5-Di-phenethyl-4,5-dihydroisoxazole]: 3.4% and 0.2%.
In the case of `c1ccc(CCC2=NOC(CCc3ccccc3)C2)cc1` (single isomer, unassigned) [116b, 3,5-Di-phenethyl-4,5-dihydroisoxazole], the “ERα receptor activation relative to 10 nM E2 corresponding 100” value at ERα amounted to 43.9%. Moreover, the “ERβ receptor activation relative to 10 nM E2 corresponding 100” value on ERβ is given as −0.4%.
Take `Fc1cccc(CC2=NOC(CCc3ccccc3)C2)c1` (centres unmarked) [69ab, 3-(3-Fluorobenzyl)-5-phenethyl-4,5-dihydroisoxazole]: the “ERα receptor activation relative to 10 nM E2 corresponding 100” value on ERα was 19.5% and 19.7%. Besides, on ERβ, the activation at 10 µM is 10.6%.
For the molecule `Oc1cccc(C2CC(Cc3ccccc3)=NO2)c1` (centres unmarked) [82ab, 3-Benzyl-5-(3-hydroxy-phenyl)-4,5-dihydro-isoxazole], the “ERα receptor activation relative to 10 nM E2 corresponding 100” value at ERα is listed as 21.6%. In addition, at ERβ, the activation at 10 µM was 6.6%.
The matching figures for `c1ccc(CCC2CC(Cc3ccccc3)=NO2)cc1` (centres unmarked) [108ab, 3-Benzyl-5-phenethyl-4,5-dihydroisoxazole]: 37.0% and 1.2%.
Regarding `c1ccc(CC2=NOC(c3ccccc3)C2)cc1` (centres unmarked) [112ab, 3-Benzyl-5-phenyl-4,5-dihydroisoxazole], the “ERα receptor activation relative to 10 nM E2 corresponding 100” value on ERα amounted to 19.6%. Moreover, the activation at 10 µM on ERβ came out at 34.4%.
For `CC1(c2ccccc2)CC(CCCc2ccccc2)=NO1` (centres unmarked) [115ab, 5-Methyl-5-phenyl-3-(3-phenyl-propyl)-4,5-dihydro-isoxazole], the “ERα receptor activation relative to 10 nM E2 corresponding 100” value at ERα was found to be 69.5%. Besides, the activation at 10 µM on ERβ came to 15.5%.
Consider `COc1ccccc1C1=NOC(Cc2ccccc2)C1` (centres unmarked) [compound 6, 5-Benzyl-3-(2-methoxyphenyl)-4,5-dihydroisoxazole], for which the melting point fell in the range of 81 to 82 °C.
`COc1ccc(C2=NOC(Cc3ccccc3)C2)cc1` (centres unmarked) [compound 12, 5-Benzyl-3-(4-methoxyphenyl)-4,5-dihydroisoxazole] gave a melting point of 99.6 to 100.3 °C.
`COc1ccc(CC2CC(c3ccc(OC)cc3)=NO2)cc1` (centres unmarked) [compound 15, 5-(4-Methoxybenzyl)-3-(4-methoxyphenyl)-4,5-dihydroisoxazole] gave a melting point of 135.8 to 137.7 °C.
The same measure, in the same setting: with `COc1ccc(C2=NOC(Cc3ccc(F)cc3)C2)cc1` (centres unmarked) [compound 18, 5-(4-Fluorobenzyl)-3-(4-methoxyphenyl)-4,5-dihydroisoxazole] the figure was 116.7 to 118.7 °C; with `COc1ccc(C2=NOC(Cc3c(F)c(F)c(F)c(F)c3F)C2)cc1` (centres unmarked) [compound 19, 3-(4-methoxyphenyl)-5-pentafluorobenzyl-4,5-dihydroisoxazole], 123 to 124 °C.
In turn, `Clc1ccc(C2=NOC(Cc3ccccc3)C2)cc1` (centres unmarked) [compound 33, 5-Benzyl-3-(4-Chlorophenyl)-4,5-dihydroisoxazole] showed a melting point of 128.2 to 129.4 °C.
In turn, `CCc1ccc(CC2CC(c3ccc(Cl)cc3)=NO2)cc1` (centres unmarked) [compound 34, 3-(4-Chlorophenyl)-5-(4-ethylbenzyl)-4,5-dihydroisoxazole] returned a melting point of 117.1 to 119.2 °C.
Take `COc1ccccc1CC1CC(c2ccc(Cl)cc2)=NO1` (centres unmarked) [compound 36, 3-(4-Chlorophenyl)-5-(2-methoxybenzyl)-4,5-dihydroisoxazole]: the melting point is 109.9 to 111.2 °C.
`COc1ccc(CC2CC(c3ccc(Cl)cc3)=NO2)cc1` (centres unmarked) [compound 38, 3-(4-Chlorophenyl)-5-(4-methoxybenzyl)-4,5-dihydroisoxazole]: the melting point was 126.2 to 127.3 °C.
`COc1ccc(CC2CC(c3ccc(Cl)cc3)=NO2)cc1OC` (centres unmarked) [compound 39, 3-(4-Chlorophenyl)-5-(3,4-dimethoxybenzyl)-4,5-dihydroisoxazole] came in with a melting point of 89 to 90.4 °C.
On the same count and under the same terms, with `Clc1ccc(C2=NOC(Cc3cccc4ccccc34)C2)cc1` (centres unmarked) [compound 41, 3-(4-Chlorophenyl)-5-naphthalen-1-ylmethyl-4,5-dihydro-isoxazole] the figure was 127.9 to 130.9 °C.
As to `Clc1cccc(Cl)c1C1=NOC(Cc2ccccc2)C1` (centres unmarked) [compound 42, 5-Benzyl-3-(2,6-dichlorophenyl)-4,5-dihydroisoxazole], the melting point lay within 90 to 90.5 °C.
The molecule `COc1ccc(CC2CC(c3c(Cl)cccc3Cl)=NO2)cc1` (centres unmarked) [compound 43, 3-(2,6-Dichlorophenyl)-5-(4-methoxybenzyl)-4,5-dihydroisoxazole] showed a melting point of 90.1 to 90.6 °C.
As for `COc1ccc(C2=NOC(C)(Cc3ccccc3)C2)cc1` (centres unmarked) [compound 53, 5-Benzyl-3-(4-methoxyphenyl)-5-methyl-4,5-dihydro-isoxazole], the melting point was 97.8 to 98.6 °C.
Regarding `CC1(Cc2ccccc2)CC(c2ccc3ccccc3c2)=NO1` (centres unmarked) [compound 57, 5-Benzyl-3-naphthalen-2-yl-5-methyl-4,5-dihydro-isoxazole], the melting point was in the range of 144.8 to 146.3 °C.
The molecule `COc1ccc(C2=NOC(CCc3ccccc3)C2)cc1` (centres unmarked) [compound 60, 3-(4-Methoxy-phenyl)-5-phenethyl-4,5-dihydro-isoxazole] gave a melting point of 69.7 to 71.9 °C.
`Fc1ccc(C2=NOC(CCc3ccccc3)C2)cc1` (centres unmarked) [compound 62, 3-(4-Fluoro-phenyl)-5-phenethyl-4,5-dihydro-isoxazole] registered a melting point of 69.8 to 71.2 °C.
The same measure, in the same setting: with `Clc1ccc(C2=NOC(CCc3ccccc3)C2)cc1` (centres unmarked) [compound 63, 3-(4-Chloro-phenyl)-5-phenethyl-4,5-dihydro-isoxazole] the figure was 74.8 to 75.7 °C.

For orientation: melting point means the temperature of the solid-liquid transition.
